Literature values, collected in patent US20070259951A1, “Compounds, Compositions and Methods” (SMITHKLINE BEECHAM CORPORATION, priority 2003, published 2007).

tested on: A549 cells; conditions: data provided by National Cancer Institute

For `O=c1[nH]cc(F)c(=O)[nH]1` [5-fluorouracil], which GI50 is on record?
Its GI50 is 1 µM.

Which GI50 does the source give for `COc1cccc2c1C(=O)c1c(O)c3c(c(O)c1C2=O)C[C@@](O)(C(=O)CO)C[C@@H]3O[C@H]1C[C@H](N)[C@H](O)[C@H](C)O1` [doxorubicin] here?
The GI50 was 0.063 µM.

For `NC(=O)NO` [hydroxyurea], which GI50 is on record?
The GI50 was 500 µM.

With `CC(=O)O[C@H]1C(=O)[C@@]2(C)[C@H]([C@H](OC(=O)c3ccccc3)[C@]3(O)C[C@H](OC(=O)[C@H](O)[C@@H](NC(=O)c4ccccc4)c4ccccc4)C(C)=C1C3(C)C)[C@]1(OC(C)=O)CO[C@@H]1C[C@@H]2O` [paclitaxel] as the molecule, how does the GI50 read?
Its GI50 is 0.004 µM.
